Experimental data reported in patent publication US9902725B2, “Heterocyclic derivatives as RORgamma modulators” (GENFIT, priority 2014, dated 2018).
pIC50: −log10 of the molar value.

Legend:
human RORγt [1] = target: T1, human RORγt (Homo sapiens, UniProt P51449); test: RORE luciferase/RORγt transactivation assay; format: cell-based; design: expressed in transfected cells; conditions: COS-7 cells transfected with IL-17 promoter luciferase reporter and RORγt plasmid, 20 h
T1 sequence (P51449 1-497 isoform P51449-2): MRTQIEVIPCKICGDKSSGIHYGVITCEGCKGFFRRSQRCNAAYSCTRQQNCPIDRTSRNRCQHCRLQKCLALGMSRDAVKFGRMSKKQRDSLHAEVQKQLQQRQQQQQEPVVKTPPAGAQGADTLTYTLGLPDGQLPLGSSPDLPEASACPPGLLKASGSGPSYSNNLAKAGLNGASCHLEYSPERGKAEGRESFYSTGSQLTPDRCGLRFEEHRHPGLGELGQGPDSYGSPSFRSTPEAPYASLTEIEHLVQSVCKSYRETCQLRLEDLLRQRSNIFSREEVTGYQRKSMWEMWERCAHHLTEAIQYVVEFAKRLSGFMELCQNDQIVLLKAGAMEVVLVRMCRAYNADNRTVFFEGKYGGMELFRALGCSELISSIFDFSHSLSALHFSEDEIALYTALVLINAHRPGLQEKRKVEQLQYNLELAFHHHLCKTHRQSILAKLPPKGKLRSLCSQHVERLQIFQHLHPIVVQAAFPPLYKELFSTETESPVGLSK
Text: It is well known that RORγ binds to a conserved non-coding sequence (CNS) enhancer element in the IL-17 promoter. Accordingly, we have used in this assay a luciferase reporter gene construct that contains the human IL-17 promoter fragment with RORγ-specific CNS enhancer element and a RORγt overexpressing plasmid, to indirectly assess the effect of compounds on RORγ activity. Inhibition of RORγ activity by test compounds will result in a decrease in luciferase activity in COS-7 cells transfected with the reporter construct.
Monkey Kidney COS-7 cell line are maintained in a standard culture medium Dulbecco's modified Eagle's minimal (DMEM) medium supplemented with 10% fetal calf serum, 1% sodium pyruvate, 1% essential amino acids and 1% antibiotics at 37° C. in a humidified atmosphere of 5% CO2 and 95% air. Culture medium was changed every 2 days.
The 4.3 Kb human IL-17 promoter containing the RORγ-specific CNS enhancer element was PCR amplified from human genomic DNA and cloned into a pGL3-TKLuc2Cp reporter plasmid. To overexpress RORγt, the full-length cDNA of human RORγt (identical to published sequence NM 001001523) was cloned without any restriction into pcdna3.1DV5-His-topo to generate the RORγt overexpression plasmid “RORγt_FL_h_pcDNA3.1DV5-His-TOPO_1”.
The luciferase reporter plasmid and the RORγt overexpression plasmid were transfected into COS-7 cell line using 4 μLJetPEITM/μg of DNA. Briefly, 150 ng of DNA (ration ½ between RORE-Tk Luc2Cp and cDNA RORγt or the empty vector for the negative control) was served to transfect adherent COS-7 cells in a […] culture flask, in complete medium (see cos-7 cell line culture). Cells were incubated for 24 hours in a humidified atmosphere of 5% CO2 and 95% air
Cells were then detached (using trypsin) and washed by centrifugation at 300 g for 10 minutes. Cell pellet was resuspended in serum free/phenol red free DMEM and seeded in 384 well plates at a density of 10000 cells/well and then incubated for 4 h at 37° C.
Compounds were dissolved in 100% DMSO to obtain 10 mM stock solutions. For each compound, test concentrations were diluted in serum free/phenol red free DMEM using the Genesis Freedom 200™ (TECAN) and added to the cells to obtain a 0.3% DMSO final concentration (in a final volume of 40 μL per well). T091317 was used as reference compound. Cells were incubated in presence of compounds for an additional 20 h at 37° C. in a humidified atmosphere of 5% CO2 and 95% air
The luciferase activity was then measured with 40 μL/well steady-Glo Luciferase assay system (Promega, Madison, Wis.) and after incubation at room temperature for 30 minutes. The luminescence was estimated using the Ultra384 reader (TECAN). Data were collected and analyzed using GraphPad Prism software (GraphPad Software V5.02, San Diego Calif. USA). IC50 in μM and Emax in % were reported for each compound.

[2] = target: T2, RORγt ligand-binding domain (RORγt-LBD) (Homo sapiens, UniProt P51449); test: Time-resolved FRET (TR-FRET) RORγt coactivator assay; format: biochemical; conditions: GST-RORγ-LBD, biotinylated RIP140 peptide, coactivator displacement
T2 construct: 20 nM recombinantly expressed RORγ-LBD fused to GST
T2 sequence (P51449 269-508 limits assumed): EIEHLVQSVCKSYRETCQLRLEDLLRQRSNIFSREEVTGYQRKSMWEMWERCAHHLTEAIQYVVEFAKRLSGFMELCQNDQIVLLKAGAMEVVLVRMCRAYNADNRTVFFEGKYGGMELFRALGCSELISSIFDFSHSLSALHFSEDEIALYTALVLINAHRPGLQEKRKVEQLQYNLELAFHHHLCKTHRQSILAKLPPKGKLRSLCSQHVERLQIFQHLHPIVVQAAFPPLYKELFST

human RORγt [3] = target: T1, human RORγt; test: IL-17 secretion from EL4 murine lymphoma overexpressing human RORγt; format: cell-based; design: expressed in transfected cells; host or cells: EL-4 murine lymphoma; conditions: IL-17 secretion inhibition, PMA and ionomycin stimulation, 24 h
Description: Murine EL-4 lymphoma cell line overexpressing human RORγt was used in this functional assay to assess compound ability to inhibit IL-17 cytokine secretion.
EL-4 cells are maintained in a standard culture medium RPMI supplemented with 10% fetal calf serum, 1% sodium pyruvate, 1% essential amino acids and 1% antibiotics at 37° C. in a humidified atmosphere of 5% CO2 and 95% air. Culture medium was changed every 2 days. EL4 cells were transfected with a plasmid encoding hRORγt (sequence identical to published sequence NM 001001523). […] Briefly, 1 μg of DNA/1 million cells was served to transfect EL-4 cells. Cell/DNA suspension was transferred into certified cuvette and the electroporation of RORγt plasmid was carried out using appropriate Nucleofector® program.
Cells were seeded in 96 well plates at a density of 150000 cells/well then treated with compounds of this invention at indicated concentrations and incubated for 24 hours at 37° C. in a humidified atmosphere of 5% CO2 and 95% air. EL-4 cells were pretreated with test compounds (RORγ modulators) and stimulated with PMA (10 ng/mL) and ionomycin (1 μM final concentration) in the presence of test compound concentrations for additional 24 h at 37° C. in a humidified atmosphere of 5% CO2 and 95% air. Subsequently, supernatants were collected (after centrifugation at 300 g for 10 minutes) to determine the concentrations of IL-17 by HTRF (CisBio, France) or ELISA (R&D Systems Europe) according to the manufacturer's protocols.

Row | Structure (SMILES) | pIC50 (human RORγt [1]) | pIC50 [2] | pIC50 (human RORγt [3])
1 | Cc1ccc(C(NC(=O)Cc2ccc3[nH]cc(CCC(=O)O)c3c2)c2ccccc2)c(Cl)c1 (stereo not shown) [Cpd. 7, 3-[5-({[(2-chloro-4-methylphenyl)(phenyl)methyl]carbamoyl}methyl)-1H-indol-3-yl]propanoic acid] | 5.00 to 6.00 | > 6.00 | 
2 | Cc1ccc(C(NC(=O)Cc2ccc3[nH]cc(CCC(=O)O)c3c2)c2ccccc2)c(Br)c1 (stereo not shown) [Cpd. 9, 3-[5-({[(2-bromo-4-methylphenyl)(phenyl)methyl]carbamoyl}methyl)-1H-indol-3-yl]propanoic acid] | 5.00 to 6.00 | > 6.00 | 
3 | Cc1ccc(C(NC(=O)Cc2ccc3[nH]cc(CCC(=O)O)c3c2)c2ccccc2N2CCCCC2)o1 (stereo not shown) [compound 148, 3-[5-({[(5-methylfuran-2-yl)[2-(piperidin-1-yl)phenyl]methyl]carbamoyl}methyl)-1H-indol-3-yl]propanoic acid] |  | > 6.00 | 5.00 to 6.00
4 | CCOc1ccc(C(NC(=O)Cc2ccc3[nH]cc(CCC(=O)O)c3c2)c2ccccc2)c(N2CCCCC2)c1 (stereo not shown) [compound 150, 3-{5-[({[4-ethoxy-2-(piperidin-1-yl)phenyl](phenyl)methyl}carbamoyl)methyl]-1H-indol-3-yl}propanoic acid] |  | > 6.00 | 5.00 to 6.00
5 | CC(C)Oc1ccc(C(NC(=O)Cc2ccc3[nH]cc(CCC(=O)O)c3c2)c2ccccc2)c(N2CCCCC2)c1 (stereo not shown) [compound 152, 3-{5-[({phenyl[2-(piperidin-1-yl)-4-(propan-2-yloxy)phenyl]methyl}carbamoyl)methyl]-1H-indol-3-yl}propanoic acid] |  | > 6.00 | 4.52 to 5.00
6 | Cc1cccc(C(NC(=O)Cc2ccc3[nH]cc(CCC(=O)O)c3c2)c2ccccc2N2CCCCC2)c1 (stereo not shown) [compound 158, 3-[5-({[(3-methylphenyl)[2-(piperidin-1-yl)phenyl]methyl]carbamoyl}methyl)-1H-indol-3-yl]propanoic acid] |  | > 6.00 | 5.00 to 6.00
7 | Cc1ccc(C(NC(=O)Cc2ccc3[nH]nc(CCC(=O)O)c3c2)c2ccccc2)c(OC(C)C)c1 (stereo not shown) [compound 160, 3-{5-[({[4-methyl-2-(propan-2-yloxy)phenyl](phenyl)methyl}carbamoyl)methyl]-1H-indazol-3-yl}propanoic acid] |  | > 6.00 | 4.52 to 5.00
8 | O=C(O)CCc1c[nH]c2ccc(CC(=O)NC(CC3CCCCC3)c3ccccc3N3CCCCC3)cc12 (stereo not shown) [compound 162, 3-{5-[({2-cyclohexyl-1-[2-(piperidin-1-yl)phenyl]ethyl}carbamoyl)methyl]-1H-indol-3-yl}propanoic acid] |  | 5.00 to 6.00 | 5.00 to 6.00
9 | CCN(CC)c1ccccc1C(CC(C)C)NC(=O)Cc1ccc2[nH]cc(CCC(=O)O)c2c1 (stereo not shown) [compound 174, 3-{5-[({1-[2-(diethylamino)phenyl]-3-methylbutyl}carbamoyl)methyl]-1H-indol-3-yl}propanoic acid] |  | 5.00 to 6.00 | 5.00 to 6.00
10 | CC(C)(C)CC(NC(=O)Cc1ccc2[nH]cc(CCC(=O)O)c2c1)c1ccccc1N1CCCCC1 (stereo not shown) [compound 186, 3-{5-[({3,3-dimethyl-1-[2-(piperidin-1-yl)phenyl]butyl}carbamoyl)methyl]-1H-indol-3-yl}propanoic acid] |  | > 6.00 | 5.00 to 6.00
11 | Cc1ccc(C(NC(=O)Cc2ccc3[nH]cc(CCC(=O)O)c3c2)c2ccccc2N2CCCCC2)cc1 (stereo not shown) [compound 188, 3-[5-({[(4-methylphenyl)[2-(piperidin-1-yl)phenyl]methyl]carbamoyl}methyl)-1H-indol-3-yl]propanoic acid] |  | > 6.00 | 4.52 to 5.00
12 | CC(C)CC(NC(=O)Cc1ccc2[nH]cc(CCC(=O)O)c2c1)c1ccccc1N1CCCCCC1 (stereo not shown) [compound 198, 3-{5-[({1-[2-(azepan-1-yl)phenyl]-3-methylbutyl}carbamoyl)methyl]-1H-indol-3-yl}propanoic acid] |  | > 6.00 | 5.00 to 6.00
13 | Cc1ccc(C(NC(=O)Cc2ccc3[nH]cc(CCC(=O)O)c3c2)c2ccccc2)c(N2CC=CC2)c1 (stereo not shown) [compound 200, 3-{5-[({[2-(2,5-dihydro-1H-pyrrol-1-yl)-4-methylphenyl](phenyl)methyl}carbamoyl)methyl]-1H-indol-3-yl}propanoic acid] |  | > 6.00 | 5.00 to 6.00
14 | Cc1cccc(C(NC(=O)Cc2ccc3[nH]cc(CCC(=O)O)c3c2)c2ccccc2)c1N1CCCCC1 (stereo not shown) [compound 202, 3-{5-[({[3-methyl-2-(piperidin-1-yl)phenyl](phenyl)methyl}carbamoyl)methyl]-1H-indol-3-yl}propanoic acid] |  | > 6.00 | 5.00 to 6.00
15 | Cc1ccc(C(C(=O)NCc2ccc3[nH]cc(CCC(=O)O)c3c2)c2ccccc2)c(N2CCCCC2)c1 (stereo not shown) [compound 209, 3-[5-({2-[4-methyl-2-(piperidin-1-yl)phenyl]-2-phenylacetamido}methyl)-1H-indol-3-yl]propanoic acid] |  | > 6.00 | 5.00 to 6.00
16 | O=C(O)CCCCc1c[nH]c2ccc(CC(=O)NC(c3ccccc3)c3ccccc3N3CCCCC3)cc12 (stereo not shown) [compound 217, 5-{5-[({phenyl[2-(piperidin-1-yl)phenyl]methyl}carbamoyl)methyl]-1H-indol-3-yl}pentanoic acid] |  | > 6.00 | 5.00 to 6.00
17 | CC(C)(C)OC(=O)CCc1c[nH]c2ccc(CC(=O)NC(c3ccccc3)c3ccc(O)cc3N3CCCCC3)cc12 (stereo not shown) [compound 264, tert-butyl 3-{5-[({[4-hydroxy-2-(piperidin-1-yl)phenyl](phenyl)methyl}carbamoyl)methyl]-1H-indol-3-yl}propanoate] |  | 5.00 to 6.00 | 5.00 to 6.00
